“Also recorded” adds a separate entry of the source. Starred links: 1 amine or outer side, 2 acyl side, 3 side chain; linkers in the order of their positions; H or OH if unused. Positions of bridges follow the written chain, without caps; N, C: chain ends. Non-standard residues stand in square brackets, D forms with d. Residues, ends and D or L forms follow the SMILES beside them. *: point of attachment. X2 = C[C@H](Oc1ccc([C@H](N[*:1])C(=O)[*:2])cc1)[C@@]1(/C=C/C(=O)[*:3])CO1; X1 = CC(C)[C@H](O)[C@H](C)C(=O)*; aIle = CC[C@@H](C)[C@H](N)C(=O)O; dNMeF = CN[C@H](Cc1ccccc1)C(=O)O; aThr = C[C@H](O)[C@H](N)C(=O)O
Legend:
[1] = test system: RNA synthesis in E. coli D21f2tolC; experiment: RNA synthesis in vivo ([14C]-uracil incorporation, macromolecular synthesis assay); type: cell-based, Escherichia coli; conditions: Sal at two times MIC; 5, 10, 15 min after addition; effect seen at earliest time point (5 min)
Procedure: (§1) Sal Inhibits RNA Synthesis in vivo. To determine whether Sal inhibits RNAP in vivo, effects of Sal on RNA synthesis in vivo were assayed, and, as a control, effects of Sal on DNA synthesis in vivo were assayed. Sal was added to cultures of E. coli D21f2tolC growing in media containing either a radioactively labeled RNA-synthesis precursor ([^14C]-uracil) or a radioactively labeled DNA synthesis precursor ([^14C]-thymidine); aliquots were removed and mixed with trichloroacetic acid (TCA) 0, 5, 10, and 15 min thereafter to lyse cells and precipitate nucleic acids; TCA-precipitated nucleic acids were collected by vacuum filtration; and radioactivity in TCA-precipitated nucleic acids was quantified (FIG. 2A). […] The effect was specific; addition of Sal to bacterial cultures had no effect on DNA synthesis (FIG. 2B, right panel). It is concluded that Sal inhibits RNA synthesis in vivo, and it is inferred that Sal inhibits RNAP in vivo.
(§2) Measurement of Nucleic Acid Synthesis in vivo. Macromolecular synthesis assays were performed essentially as in reference 5. […] Radioactivity was quantified using a Typhoon Variable Mode Imager and ImageQuant v5 (Molecular Dynamics, Inc.).

[2] = test system: DNA synthesis in E. coli D21f2tolC; experiment: DNA synthesis in vivo ([14C]-thymidine incorporation, macromolecular synthesis assay); type: cell-based, Escherichia coli; conditions: Sal at two times MIC; 5, 10, 15 min after addition
Procedure: as §1, §2

E. coli D21f2tolC = experiment: Spontaneous resistance frequency by plating on LB agar containing inhibitor; type: cell-based, Escherichia coli
Source text: Sal-Resistant Mutants Map to RNAP-Subunit Genes. To determine whether Sal kills bacteria by inhibiting RNAP, spontaneous Sal-resistant mutants were isolated, and genes for RNAP subunits in Sal-resistant mutants were PCR-amplified and sequenced (FIG. 3A). Spontaneous Sal-resistant mutants were isolated by plating high-density cultures of E. coli D21f2tolC (˜3×10^9 cells per plate) on agar containing Sal and identifying rare resistant colonies (FIG. 3B). For each Sal-resistant mutant, genomic DNA was prepared, and the genes for the largest RNAP subunit and the second-largest RNAP subunit—rpoC encoding RNAP β′ subunit and rpoB encoding RNAP β subunit were PCR-amplified and sequenced (FIG. 3C).
Co-Administration of Sal and Rifampin Reduces Spontaneous Resistance to Undetectable Levels.
Co-Administration of Sal and CBR703 Reduces Spontaneous Resistance to Undetectable Levels.
(§3) Isolation of Sal-Resistant Mutants: Spontaneous Sal-Resistant Mutants. E. coli D21f2tolC (6) was cultured to saturation in 5 ml LB broth (7) at 37° C., cultures were centrifuged, and cell pellets (˜3×10^9 cells) were re-suspended in 50 μl LB broth and plated on LB agar (7) containing 1.2 μg/ml Sal (a concentration four times the minimal concentration required to prevent growth of wild-type cells under these conditions), and incubated 24-48 h at 37° C. Sal-resistant mutants were identified by the ability to form colonies on this medium and were confirmed by re-streaking on the same medium.

[3] = test system: Sal-resistant mutants of E. coli D21f2tolC (rpoC / rpoB substitutions); experiment: Broth microdilution resistance / cross-resistance levels of spontaneous Sal-resistant mutants; type: cell-based, Escherichia coli
Procedure: as §3
Quantitation of Resistance to Sal. Resistance to Sal was quantified by performing broth microdilution assays. Single colonies were inoculated into 3 ml LB broth, and incubated 3-6 h at 37° C. with shaking. Diluted aliquots (2×10^4 cells in 98 μl LB broth; concentrations determined using OD600=1 for 10^9 cells) were dispensed into wells of a 96-well plate, were supplemented with 2 μl of a 2-fold dilution series of Sal in methanol (final concentrations of […], 0.390, 0.195, 0.0975, 0.0488, 0.0244, 0.0122, and 0.00609 μg/ml) or 2 μl of a solvent blank, and were incubated 16 h at 37° C. with shaking. The minimum inhibitory concentration (MIC) was defined as the lowest tested concentration of Sal that inhibited bacterial growth by 95%.
Quantitation of Cross-Resistance to Rifampin and CBR703. Cross-resistance levels were determined analogously to resistance levels, using 0.12-0.78 μg/ml of rifampin (Sigma, Inc.) and 0.39-25 μg/ml of CBR703 (Maybridge, Inc.).

S. pyogenes = conditions: references 1, 2; cited from earlier work

CC[C@@H](C)[C@@H]1NC(=O)[C@H](NC(=O)[C@@H](C)[C@@H](O)C(C)C)[C@H](C)OC(=O)[C@H]2COC(=O)CNC(=O)/C=C/[C@@]3(CO3)[C@H](C)Oc3ccc(cc3)[C@H](NC1=O)C(=O)N(C)[C@H](Cc1ccccc1)C(=O)N[C@@H]([C@H](C)O)C(=O)N2 [Sal, salinamide A] (X1-[dT][aIle][X2][dNMeF][aThr][dS]; ester 1-C; linker 3-6 via G)
effect on RNA synthesis in vivo [1]: decreased immediately; also recorded: essentially stopped
effect on DNA synthesis in vivo [2]: no effect
spontaneous resistance frequency (E. coli D21f2tolC; LB agar, each compound at 4×MIC, colonies counted after 24 h at 37° C.): 4×10^−9
frequency of spontaneous mutation to Sal-resistance (E. coli D21f2tolC; ~3×10^9 cells per plate, LB agar with 1.2 μg/ml Sal, 24-48 h at 37° C.): ~4 × 10^−9
resistance to Sal, all analyzed mutants ([3]; all analyzed Sal-resistant mutants (Tables 2, 3)): at least 2 fold
resistance level (MIC/MICwild-type) ([3]; rpoB (RNAP β subunit) 569 Ile→Ser): >16
resistance level (MIC/MICwild-type) ([3]; rpoB (RNAP β subunit) 675 Asp→Ala): >16
resistance level (MIC/MICwild-type) ([3]; rpoB (RNAP β subunit) 677 Asn→His): >16
resistance level (MIC/MICwild-type) ([3]; rpoB (RNAP β subunit) 677 Asn→Lys): >16
resistance level (MIC/MICwild-type) ([3]; rpoC (RNAP β′ subunit) 690 Asn→Asp): 16
resistance level (MIC/MICwild-type) ([3]; rpoC (RNAP β′ subunit) 697 Met→Val (one isolate also 1054 Thr→Ala)): >16
resistance level (MIC/MICwild-type) ([3]; rpoC (RNAP β′ subunit) 738 Arg→Cys): >16
resistance level (MIC/MICwild-type) ([3]; rpoC (RNAP β′ subunit) 738 Arg→His): >16
resistance level (MIC/MICwild-type) ([3]; rpoC (RNAP β′ subunit) 738 Arg→Pro): >16
resistance level (MIC/MICwild-type) ([3]; rpoC (RNAP β′ subunit) 738 Arg→Ser): >16
resistance level (MIC/MICwild-type) ([3]; rpoC (RNAP β′ subunit) 748 Ala→Glu): 16
resistance level (MIC/MICwild-type) ([3]; rpoC (RNAP β′ subunit) 758 Pro→Ser): 16
resistance level (MIC/MICwild-type) ([3]; rpoC (RNAP β′ subunit) 763 Phe→Cys): 16
resistance level (MIC/MICwild-type) ([3]; rpoC (RNAP β′ subunit) 775 Ser→Ala): 8
resistance level (MIC/MICwild-type) ([3]; rpoC (RNAP β′ subunit) 779 Ala→Thr): >16
resistance level (MIC/MICwild-type) ([3]; rpoC (RNAP β′ subunit) 779 Ala→Val): >16
resistance level (MIC/MICwild-type) ([3]; rpoC (RNAP β′ subunit) 780 Arg→Cys): >16
resistance level (MIC/MICwild-type) ([3]; rpoC (RNAP β′ subunit) 783 Leu→Arg): >16
resistance to Sal, thirteen mutants ([3]; thirteen of the Sal-resistant mutants): > 16 fold
antibacterial activity (S. pyogenes): exhibits antibacterial activity
